Experimental data published in US7741286B2, “Long lasting anti-angiogenic peptides” (ConjuChem Biotechnologies Inc., priority 1999, dated 2010).

Test: Peptide stability assay: stability of K5 in human plasma (HPLC/MS of free intact peptide)
Format: in vitro ADME
Design: remaining at 4 h / remaining at 24 h: dose or concentration left out as unconfirmed
Details: for % K5 peptide in plasma: final concentration 160 mM K5
Procedure: K5 was prepared as a 1 μM solution and dissolved in 25% human serum albumin. The mixture was then incubated at 37° C. in the presence of human plasma to final concentration of […] K5. Aliquots of 100 μl were withdrawn from the plasma at 0, 4 hours and 24 hours. The 100 μl aliquots were mixed with 100 μl of blocking solution (5 vol. 5% ZnSO4/3 vol. Acetonitrile/2 vol. Methanol) in order to precipitate all proteins. The sample was centrifuged for 5 min at 10,000 g and the supernatant containing the peptide was recovered and filtered through a 0.22 μm filter. The presence of free intact K5 peptide was assayed by the HPLC/MS. The HPLC parameters for detection of K5 peptide in serum were as follows.
The HPLC method was as follows: A Vydac C18 250×4.6 mm, 5μ particle size column was utilized. The column temperature was 30° C. with a flow rate of 0.5 ml/min. Mobile Phase A was 0.1% TFA/water. Mobile Phase B was 0.1% TFA/acetonitrite. The injection volume was 10 μl.
The gradient was as follows: […]
The proteins were detected at 214, 254 and 334 nm. For mass spectral analysis, the ionization mode was API-electrospray (positive mode) at an M/Z range of 300 to 2000. The gain was 3.0, fragmentor 120 v, threshold 20, stepsize 0.1. The gas temp was 350° C. and the dying gas volume was 10.0 l/min. The Neb pressure was 24 psi and the Vcap was 3500V. The HPLC method was as follows: A Vydac C18 250×4.6 mm, 5μ particle size column was utilized. The column temperature was 30° C. with a flow rate of 0.5 ml/min. Mobile Phase A was 0.1% TFA/water. Mobile Phase B was 0.1% TFA/acetonitrite. The injection volume was 10 μl.
The proteins were detected at 214, 254 and 334 nm. For mass spectral analysis, the ionization mode was API-electrospray (positive mode) at an M/Z range of 300 to 2000. The gain was 3.0, fragmentor 120 v, threshold 20, stepsize 0.1. The gas temp was 350° C. and the drying gas volume was 10.0 l/min. The Neb pressure was 24 psi and the Vcap was 3500V.

## H-PRKLYDK-NH2 [Example K5, Pro-Arg-Lys-Leu-Tyr-Asp-Lys-NH2]
0 hrs, 37° C. in human plasma
  % K5 peptide in plasma: 100%
4 hrs, 37° C. in human plasma
  remaining at 4 h: 9%
  % K5 peptide in plasma: 9%
24 hrs, 37° C. in human plasma
  remaining at 24 h: 0%
Human plasma, 37° C.
  stability of unmodified K5 peptide in serum/plasma (in words): quite unstable
